Assay results taken from ChEMBL document CHEMBL1201862, “PubChem BioAssay data set” (2004).
Calls of active or inactive are those of the source.

Experiments:
[1] = T. cruzi infection blockers in NIH3T3 cells – beta-gal luminescence, NIH3T3 host cells, confirmation (AID 2630); type: functional, cell-based; settings: Mus musculus
[2] = target: Cytochrome P450 2D6 (Homo sapiens, UniProt P10635);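 note: CYP2D6 member of a cytochrome P450 panel assay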
[3] = target: Cytochrome P450 3A4 (Homo sapiens, UniProt P08684);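 note: CYP3A4 tested as one member of a cytochrome P450 panel screen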
[4] = target: T1, SUMO-activating enzyme (Homo sapiens, UniProt Q9UBT2); experiment: blockers of SAE1/SAE2–UBC9 SUMO transfer – biochemical, HTRF, uHTS, primary screen (AID 2006); type: protein-complex assay
[5] = target: T1, SUMO-activating enzyme; experiment: blockers of UBC9-mediated SUMO conjugation – biochemical, AlphaScreen, SUMOylation inhibitor project, confirmation (AID 2018); type: functional
[6] = target: SUMO E1/E2 (Homo sapiens, UniProt P63279+Q9UBE0+Q9UBT2); experiment: SAR analysis of SUMOylation using HTRF in an in-Vitro dose response assay. [Related pubchem assays (depositor defined):AID2006, AID2011, AID2018, AID2069, AID2658]; type: functional
[7] = target: Phosphomannomutase 2 (Homo sapiens, UniProt O15305); experiment: Counter screen SAR assay for PMM2 inhibitors via a fluorescence intensity assay. [Related pubchem assays (depositor defined):AID1545, AID1574]
[8] = target: DNA dC->dU-editing enzyme APOBEC-3A (Homo sapiens, UniProt P31941); experiment: A3A deaminase inhibition for selectivity – biochemical, dose response (AID 504722); type: functional
[9] = target: Procathepsin L (Homo sapiens, UniProt P07711); experiment: CTSL1 protease inhibition – biochemical, QFRET, 1536-well, counter-screen for M1/M17 aminopeptidase inhibitor project, dose response (AID 2214)
[10] = target: T2, Aspartyl aminopeptidase (Plasmodium falciparum 3D7, UniProt Q8I2J3); experiment: Counterscreen for inhibitors of M1 and M17 aminopeptidases: QFRET-based biochemical high throughput dose response assay for inhibitors of the Plasmodium falciparum M18 Aspartyl Aminopeptidase (PFM18AAP). [Related PubChem assays: 1619 (Screening assay (M17LAP inhibitors).), 1445 (Screening assay (M1AAP inhibitors).)]
T2 sequence (Q8I2J3 whole entry): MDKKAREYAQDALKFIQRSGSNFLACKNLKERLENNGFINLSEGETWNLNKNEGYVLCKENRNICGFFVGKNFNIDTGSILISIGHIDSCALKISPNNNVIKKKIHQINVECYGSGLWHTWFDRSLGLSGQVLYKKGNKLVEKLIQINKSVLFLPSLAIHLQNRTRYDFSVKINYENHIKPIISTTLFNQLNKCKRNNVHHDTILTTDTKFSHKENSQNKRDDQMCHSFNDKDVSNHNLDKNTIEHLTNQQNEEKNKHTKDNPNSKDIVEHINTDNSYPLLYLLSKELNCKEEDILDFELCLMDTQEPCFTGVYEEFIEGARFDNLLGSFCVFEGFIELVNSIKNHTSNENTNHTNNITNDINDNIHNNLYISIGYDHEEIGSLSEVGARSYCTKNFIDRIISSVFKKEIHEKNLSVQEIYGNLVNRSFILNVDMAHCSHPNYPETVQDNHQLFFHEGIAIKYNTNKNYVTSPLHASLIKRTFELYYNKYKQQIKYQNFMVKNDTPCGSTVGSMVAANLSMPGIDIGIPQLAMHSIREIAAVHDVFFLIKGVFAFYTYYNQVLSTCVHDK

[11] = target: T3, Leucine aminopeptidase (Plasmodium falciparum 3D7, UniProt Q8IL11); experiment: P. falciparum M17LAP inhibitors, primary screen, biochemical, fluorogenic H-Leu-NHMec substrate, 1536-well (AID 1619); type: functional
T3 sequence (Q8IL11 whole entry): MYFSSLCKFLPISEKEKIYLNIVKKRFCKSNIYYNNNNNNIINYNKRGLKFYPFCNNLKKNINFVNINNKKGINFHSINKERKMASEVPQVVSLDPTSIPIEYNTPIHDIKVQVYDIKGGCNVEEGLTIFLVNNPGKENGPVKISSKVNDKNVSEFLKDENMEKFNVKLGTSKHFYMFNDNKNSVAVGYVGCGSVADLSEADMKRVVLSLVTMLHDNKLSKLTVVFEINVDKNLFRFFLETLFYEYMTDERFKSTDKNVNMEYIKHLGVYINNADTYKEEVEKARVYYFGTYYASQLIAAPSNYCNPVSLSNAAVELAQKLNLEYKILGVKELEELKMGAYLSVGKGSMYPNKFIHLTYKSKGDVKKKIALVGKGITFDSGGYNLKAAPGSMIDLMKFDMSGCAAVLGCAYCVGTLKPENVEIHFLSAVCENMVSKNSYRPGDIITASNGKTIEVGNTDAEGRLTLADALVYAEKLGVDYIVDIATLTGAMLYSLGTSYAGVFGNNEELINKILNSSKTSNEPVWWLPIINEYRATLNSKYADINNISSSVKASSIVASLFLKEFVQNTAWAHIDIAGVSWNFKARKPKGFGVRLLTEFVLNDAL

[12] = test system: Escherichia coli; experiment: microbe, parasite or virus in culture
[13] = target: T4, Mannose-6-phosphate isomerase (Homo sapiens, UniProt P34949); experiment: phosphomannose isomerase inhibition – biochemical, fluorescence intensity, confirmation (AID 1535)
T4 sequence (P34949 whole entry): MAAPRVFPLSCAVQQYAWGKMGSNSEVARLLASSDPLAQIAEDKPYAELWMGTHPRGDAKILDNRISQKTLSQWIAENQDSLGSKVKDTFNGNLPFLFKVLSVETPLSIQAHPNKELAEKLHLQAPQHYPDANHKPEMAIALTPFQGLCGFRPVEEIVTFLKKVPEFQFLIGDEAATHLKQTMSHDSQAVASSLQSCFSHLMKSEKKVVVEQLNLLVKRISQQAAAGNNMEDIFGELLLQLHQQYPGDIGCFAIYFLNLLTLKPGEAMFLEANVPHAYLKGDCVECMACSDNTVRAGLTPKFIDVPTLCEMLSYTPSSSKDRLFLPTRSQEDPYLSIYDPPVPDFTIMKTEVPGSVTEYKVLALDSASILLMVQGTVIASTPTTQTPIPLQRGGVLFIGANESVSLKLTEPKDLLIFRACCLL

[14] = target: T5, Intestinal-type alkaline phosphatase (Homo sapiens, UniProt P09923); experiment: Dose Response confirmation of uHTS hits from a small molecule inhibitors of human intestinal alkaline phosphatase via a luminescent assay. [Related pubchem assays (depositor defined):AID2544, AID2574]; type: functional
[15] = target: T5, Intestinal-type alkaline phosphatase; experiment: inhibition of human intestinal alkaline phosphatase – biochemical, luminescent, uHTS hits, set 2, dose response (AID 488793); type: functional
[16] = target: T6, Intestinal-type alkaline phosphatase (Mus musculus, UniProt P24822); experiment: PubChem AID 488874; type: functional
[17] = target: T7, Alkaline phosphatase, tissue-nonspecific isozyme (Homo sapiens, UniProt P05186); experiment: inhibition of tissue-nonspecific alkaline phosphatase – biochemical, dose response (AID 488882); type: functional
T7 sequence (P05186 whole entry): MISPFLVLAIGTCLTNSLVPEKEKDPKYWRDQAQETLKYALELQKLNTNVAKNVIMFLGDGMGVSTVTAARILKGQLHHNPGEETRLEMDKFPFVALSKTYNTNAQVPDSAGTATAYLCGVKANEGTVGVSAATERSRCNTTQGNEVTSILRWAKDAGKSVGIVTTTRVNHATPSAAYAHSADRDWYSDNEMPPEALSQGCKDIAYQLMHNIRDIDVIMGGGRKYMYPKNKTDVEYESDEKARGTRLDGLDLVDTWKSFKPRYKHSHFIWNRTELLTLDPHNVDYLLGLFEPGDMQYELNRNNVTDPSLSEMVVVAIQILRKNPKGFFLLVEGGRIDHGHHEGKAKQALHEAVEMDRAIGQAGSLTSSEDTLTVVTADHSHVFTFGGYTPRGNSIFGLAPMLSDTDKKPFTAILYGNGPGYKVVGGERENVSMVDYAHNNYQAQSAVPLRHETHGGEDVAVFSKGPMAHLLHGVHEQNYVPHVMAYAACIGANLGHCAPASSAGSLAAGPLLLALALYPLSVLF

[18] = target: T6, Intestinal-type alkaline phosphatase; experiment: PubChem AID 488875; type: functional
[19] = target: T5, Intestinal-type alkaline phosphatase; experiment: human intestinal alkaline phosphatase activators, dose response, biochemical, luminescence, uHTS hits (AID 463120); type: functional
[20] = target: T7, Alkaline phosphatase, tissue-nonspecific isozyme; experiment: activation of tissue-nonspecific alkaline phosphatase – biochemical, TNAP isozyme, human IAP uHTS hits, selectivity assay for human IAP activator project, dose response (AID 488886); type: functional;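 note: potency of compounds raising TNAP activity as a selectivity check on IAP activators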
[21] = target: T5, Intestinal-type alkaline phosphatase; experiment: activation of human intestinal alkaline phosphatase – biochemical, luminescent, uHTS hits, set 2, dose response (AID 488817); type: functional;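 note: potency of activators that raise enzyme activity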
[22] = target: Cytochrome P450 2C19 (Homo sapiens, UniProt P33261); experiment: Cytochrome panel assay with activity outcomes. Panel member name: p450-cyp2c19 Compounds with AC50 equal or less than 10 uM are considered active; type: functional
[23] = target: T8, Cytochrome P450 1A2 (Homo sapiens, UniProt P05177);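 note: PubChem cytochrome P450 panel assay, CYP1A2 panel member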
T8 sequence (P05177 whole entry): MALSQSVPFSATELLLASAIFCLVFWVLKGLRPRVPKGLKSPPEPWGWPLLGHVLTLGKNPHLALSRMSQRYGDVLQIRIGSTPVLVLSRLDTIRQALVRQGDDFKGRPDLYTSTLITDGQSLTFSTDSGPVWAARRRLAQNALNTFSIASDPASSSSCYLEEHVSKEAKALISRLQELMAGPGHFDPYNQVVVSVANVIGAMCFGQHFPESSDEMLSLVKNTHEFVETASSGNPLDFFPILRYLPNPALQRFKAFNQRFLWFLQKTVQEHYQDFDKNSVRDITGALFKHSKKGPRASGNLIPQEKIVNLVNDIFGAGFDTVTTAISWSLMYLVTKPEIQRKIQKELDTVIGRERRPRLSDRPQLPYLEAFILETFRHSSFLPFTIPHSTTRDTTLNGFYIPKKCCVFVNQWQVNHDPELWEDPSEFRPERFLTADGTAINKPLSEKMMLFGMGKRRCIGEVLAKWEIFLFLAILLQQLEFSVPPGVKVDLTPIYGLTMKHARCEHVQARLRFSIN

[24] = target: UDP-galactopyranose mutase (Mycobacterium tuberculosis, UniProt P9WIQ1); experiment: Inhibitors of Mycobacterium tuberculosis UDP-galactopyranose mutase (UGM) enzyme Measured in Biochemical System Using Plate Reader - 2105-02_Inhibitor_Dose_CherryPick_Activity. [Related pubchem assays (depositor defined):AID504439]
[25] = target: T9, Endoribonuclease toxin MazF (Escherichia coli K-12, UniProt P0AE70); experiment: substrate-only fluorescence increase artefacts – biochemical, single-stranded RNase substrate, counter-screen for MazEF activator project, dose response (AID 588502); type: functional
T9 sequence (P0AE70 whole entry): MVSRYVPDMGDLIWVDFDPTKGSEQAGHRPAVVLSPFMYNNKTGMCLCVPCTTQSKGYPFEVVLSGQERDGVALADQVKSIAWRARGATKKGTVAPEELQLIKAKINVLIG

[26] = target: T9, Endoribonuclease toxin MazF; experiment: activation of MazEF endoribonuclease cleavage – biochemical, fluorescence, single-stranded RNA substrate, uHTS hits, dose response (AID 588481); type: functional
[27] = target: T10, RNA-binding protein pos-1 (Caenorhabditis elegans, UniProt G5EF15); experiment: disruptors of C. elegans POS-1 RNA interaction – biochemical, fluorescence polarization, dose response (AID 1964);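 note: purified POS-1 fused to maltose binding protein made in E. coli; potency of compounds blocking POS-1 binding to fluorescent RNA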
T10 sequence (G5EF15 whole entry): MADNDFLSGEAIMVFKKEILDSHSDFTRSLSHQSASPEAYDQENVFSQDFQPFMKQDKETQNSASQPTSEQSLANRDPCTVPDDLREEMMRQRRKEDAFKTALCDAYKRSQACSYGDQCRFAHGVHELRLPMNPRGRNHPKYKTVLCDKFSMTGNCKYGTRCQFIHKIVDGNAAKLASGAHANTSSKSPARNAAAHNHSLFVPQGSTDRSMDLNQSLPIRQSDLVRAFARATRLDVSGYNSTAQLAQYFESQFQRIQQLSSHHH

[28] = target: T11, Zinc finger protein mex-5 (Caenorhabditis elegans, UniProt Q9XUB2); experiment: potency of MEX-5 RNA-binding blockers – biochemical, C. elegans, fluorescence polarization, dose response (AID 1960)
T11 sequence (Q9XUB2 whole entry): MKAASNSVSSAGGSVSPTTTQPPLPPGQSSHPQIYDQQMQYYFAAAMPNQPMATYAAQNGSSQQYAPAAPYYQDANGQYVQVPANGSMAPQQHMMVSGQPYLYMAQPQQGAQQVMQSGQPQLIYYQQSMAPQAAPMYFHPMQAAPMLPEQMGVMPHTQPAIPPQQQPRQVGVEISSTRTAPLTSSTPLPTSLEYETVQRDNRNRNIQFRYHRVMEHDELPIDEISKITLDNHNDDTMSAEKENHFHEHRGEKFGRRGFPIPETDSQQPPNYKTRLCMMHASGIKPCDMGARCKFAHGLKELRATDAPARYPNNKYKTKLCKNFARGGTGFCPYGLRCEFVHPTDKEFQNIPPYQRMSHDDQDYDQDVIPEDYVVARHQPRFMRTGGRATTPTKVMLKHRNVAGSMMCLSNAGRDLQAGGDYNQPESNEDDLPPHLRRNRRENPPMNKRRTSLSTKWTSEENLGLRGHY

T5 sequence (P09923 whole entry): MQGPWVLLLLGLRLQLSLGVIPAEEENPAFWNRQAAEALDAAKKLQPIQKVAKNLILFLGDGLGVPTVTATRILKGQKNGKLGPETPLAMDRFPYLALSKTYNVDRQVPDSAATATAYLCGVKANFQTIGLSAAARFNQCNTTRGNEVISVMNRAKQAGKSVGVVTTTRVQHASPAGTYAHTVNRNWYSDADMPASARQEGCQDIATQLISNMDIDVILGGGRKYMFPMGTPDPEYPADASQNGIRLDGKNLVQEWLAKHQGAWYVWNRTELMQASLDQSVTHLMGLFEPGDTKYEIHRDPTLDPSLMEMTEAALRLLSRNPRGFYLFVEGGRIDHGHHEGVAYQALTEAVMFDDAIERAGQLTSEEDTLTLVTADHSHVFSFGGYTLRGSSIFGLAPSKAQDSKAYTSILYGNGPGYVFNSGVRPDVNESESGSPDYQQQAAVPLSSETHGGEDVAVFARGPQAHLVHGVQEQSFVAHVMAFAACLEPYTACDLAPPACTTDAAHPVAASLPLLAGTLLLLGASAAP
T6 sequence (P24822 whole entry): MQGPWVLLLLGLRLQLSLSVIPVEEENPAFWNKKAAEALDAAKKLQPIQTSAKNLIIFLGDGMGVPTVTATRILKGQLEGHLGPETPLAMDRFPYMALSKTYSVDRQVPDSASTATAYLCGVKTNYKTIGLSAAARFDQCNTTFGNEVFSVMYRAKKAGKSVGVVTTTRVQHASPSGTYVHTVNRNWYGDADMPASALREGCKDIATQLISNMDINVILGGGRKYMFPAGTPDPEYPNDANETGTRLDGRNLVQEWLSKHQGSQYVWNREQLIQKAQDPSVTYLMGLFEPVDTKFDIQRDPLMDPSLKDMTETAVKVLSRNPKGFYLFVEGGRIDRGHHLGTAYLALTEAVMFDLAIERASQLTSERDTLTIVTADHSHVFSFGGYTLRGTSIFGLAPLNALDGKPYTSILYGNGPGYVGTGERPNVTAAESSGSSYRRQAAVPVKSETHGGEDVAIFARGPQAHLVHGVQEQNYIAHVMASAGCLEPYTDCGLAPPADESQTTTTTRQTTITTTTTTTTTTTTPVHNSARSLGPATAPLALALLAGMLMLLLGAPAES
T1 sequence (Q9UBE0 whole entry): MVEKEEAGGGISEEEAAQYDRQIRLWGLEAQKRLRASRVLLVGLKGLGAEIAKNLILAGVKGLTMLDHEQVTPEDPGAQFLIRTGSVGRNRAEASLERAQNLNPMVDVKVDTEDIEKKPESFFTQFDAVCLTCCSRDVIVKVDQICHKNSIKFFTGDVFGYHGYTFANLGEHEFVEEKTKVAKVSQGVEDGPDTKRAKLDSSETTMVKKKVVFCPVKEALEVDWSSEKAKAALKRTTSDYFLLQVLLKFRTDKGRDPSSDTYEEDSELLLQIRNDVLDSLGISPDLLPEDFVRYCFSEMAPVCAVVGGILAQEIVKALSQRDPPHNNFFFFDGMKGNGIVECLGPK
T1 sequence (Q9UBT2 whole entry): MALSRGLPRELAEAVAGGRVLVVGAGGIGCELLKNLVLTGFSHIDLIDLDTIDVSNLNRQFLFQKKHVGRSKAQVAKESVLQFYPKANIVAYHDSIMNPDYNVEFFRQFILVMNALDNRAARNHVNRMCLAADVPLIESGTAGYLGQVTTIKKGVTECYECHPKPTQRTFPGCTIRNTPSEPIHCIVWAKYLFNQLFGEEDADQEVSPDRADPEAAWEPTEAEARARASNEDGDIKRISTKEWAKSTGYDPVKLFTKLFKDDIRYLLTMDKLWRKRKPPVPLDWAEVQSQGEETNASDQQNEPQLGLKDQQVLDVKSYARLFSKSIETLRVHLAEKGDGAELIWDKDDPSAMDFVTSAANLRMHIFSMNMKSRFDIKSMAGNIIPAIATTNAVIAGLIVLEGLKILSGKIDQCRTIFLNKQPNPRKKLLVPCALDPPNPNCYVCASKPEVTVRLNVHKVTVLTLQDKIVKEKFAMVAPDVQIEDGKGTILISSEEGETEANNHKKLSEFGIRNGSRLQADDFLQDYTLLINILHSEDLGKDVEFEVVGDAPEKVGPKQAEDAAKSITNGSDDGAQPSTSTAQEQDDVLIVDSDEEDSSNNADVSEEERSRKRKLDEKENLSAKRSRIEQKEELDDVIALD
Sequence of DNA dC->dU-editing enzyme APOBEC-3A (P31941 whole entry): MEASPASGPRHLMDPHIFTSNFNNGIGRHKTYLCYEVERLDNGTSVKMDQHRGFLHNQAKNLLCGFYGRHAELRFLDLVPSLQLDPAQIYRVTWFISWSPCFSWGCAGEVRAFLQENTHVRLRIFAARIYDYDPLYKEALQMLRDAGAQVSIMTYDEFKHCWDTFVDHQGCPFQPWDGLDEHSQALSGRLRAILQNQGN
Sequence of Procathepsin L (P07711 whole entry): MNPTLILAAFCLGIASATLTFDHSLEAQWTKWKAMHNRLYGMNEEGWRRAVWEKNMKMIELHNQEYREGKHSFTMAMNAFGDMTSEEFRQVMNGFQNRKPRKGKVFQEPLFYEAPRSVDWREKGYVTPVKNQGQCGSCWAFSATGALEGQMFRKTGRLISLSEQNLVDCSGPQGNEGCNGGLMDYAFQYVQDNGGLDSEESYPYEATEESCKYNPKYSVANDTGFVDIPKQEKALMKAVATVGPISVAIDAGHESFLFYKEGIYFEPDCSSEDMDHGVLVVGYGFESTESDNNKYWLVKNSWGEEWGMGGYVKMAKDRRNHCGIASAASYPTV
Sequence of Cytochrome P450 2D6 (P10635 whole entry): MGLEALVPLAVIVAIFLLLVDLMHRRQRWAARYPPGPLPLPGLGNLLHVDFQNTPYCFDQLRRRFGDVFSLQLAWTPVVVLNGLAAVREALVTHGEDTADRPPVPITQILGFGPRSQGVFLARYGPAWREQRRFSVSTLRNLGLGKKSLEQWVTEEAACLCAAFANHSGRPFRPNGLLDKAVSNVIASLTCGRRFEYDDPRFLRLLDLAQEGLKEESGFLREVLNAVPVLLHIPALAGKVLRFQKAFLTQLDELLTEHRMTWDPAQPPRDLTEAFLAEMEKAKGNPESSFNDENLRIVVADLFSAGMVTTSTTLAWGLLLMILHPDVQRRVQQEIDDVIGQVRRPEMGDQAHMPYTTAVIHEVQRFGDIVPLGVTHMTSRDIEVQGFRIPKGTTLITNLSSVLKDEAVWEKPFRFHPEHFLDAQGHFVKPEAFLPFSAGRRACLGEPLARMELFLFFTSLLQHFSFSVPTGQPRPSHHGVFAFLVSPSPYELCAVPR
Sequence of UDP-galactopyranose mutase (P9WIQ1 whole entry): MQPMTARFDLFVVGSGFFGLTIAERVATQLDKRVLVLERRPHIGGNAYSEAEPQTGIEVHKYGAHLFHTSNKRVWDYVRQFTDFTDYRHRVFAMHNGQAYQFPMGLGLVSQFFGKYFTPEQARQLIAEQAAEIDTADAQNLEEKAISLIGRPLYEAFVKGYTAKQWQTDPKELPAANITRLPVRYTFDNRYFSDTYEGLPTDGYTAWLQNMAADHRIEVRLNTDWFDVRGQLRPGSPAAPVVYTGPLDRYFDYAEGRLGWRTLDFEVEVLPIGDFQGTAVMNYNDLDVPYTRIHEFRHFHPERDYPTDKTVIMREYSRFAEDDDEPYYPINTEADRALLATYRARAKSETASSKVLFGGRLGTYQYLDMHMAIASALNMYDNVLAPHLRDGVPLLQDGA
Sequence of Phosphomannomutase 2 (O15305 whole entry): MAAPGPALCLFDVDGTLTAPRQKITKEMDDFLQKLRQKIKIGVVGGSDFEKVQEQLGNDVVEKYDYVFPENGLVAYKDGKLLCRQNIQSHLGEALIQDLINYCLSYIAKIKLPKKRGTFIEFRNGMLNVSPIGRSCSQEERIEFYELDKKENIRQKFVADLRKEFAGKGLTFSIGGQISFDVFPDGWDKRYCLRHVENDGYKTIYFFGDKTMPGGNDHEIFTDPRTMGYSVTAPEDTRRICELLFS
Sequence of Cytochrome P450 3A4 (P08684 whole entry): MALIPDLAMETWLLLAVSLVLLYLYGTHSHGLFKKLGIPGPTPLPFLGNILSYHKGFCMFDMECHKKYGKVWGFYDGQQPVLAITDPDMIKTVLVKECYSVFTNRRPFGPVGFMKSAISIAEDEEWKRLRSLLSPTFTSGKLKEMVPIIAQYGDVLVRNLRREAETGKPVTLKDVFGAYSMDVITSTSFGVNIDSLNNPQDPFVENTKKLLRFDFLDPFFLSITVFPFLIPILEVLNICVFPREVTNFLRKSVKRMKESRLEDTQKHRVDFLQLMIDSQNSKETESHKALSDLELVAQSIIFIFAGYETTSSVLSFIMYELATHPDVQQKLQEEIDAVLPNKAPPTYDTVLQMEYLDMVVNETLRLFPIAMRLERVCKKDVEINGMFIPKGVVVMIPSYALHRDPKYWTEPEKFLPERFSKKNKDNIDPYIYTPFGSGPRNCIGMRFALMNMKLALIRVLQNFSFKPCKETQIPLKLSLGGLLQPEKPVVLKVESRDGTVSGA
Sequence of Cytochrome P450 2C19 (P33261 whole entry): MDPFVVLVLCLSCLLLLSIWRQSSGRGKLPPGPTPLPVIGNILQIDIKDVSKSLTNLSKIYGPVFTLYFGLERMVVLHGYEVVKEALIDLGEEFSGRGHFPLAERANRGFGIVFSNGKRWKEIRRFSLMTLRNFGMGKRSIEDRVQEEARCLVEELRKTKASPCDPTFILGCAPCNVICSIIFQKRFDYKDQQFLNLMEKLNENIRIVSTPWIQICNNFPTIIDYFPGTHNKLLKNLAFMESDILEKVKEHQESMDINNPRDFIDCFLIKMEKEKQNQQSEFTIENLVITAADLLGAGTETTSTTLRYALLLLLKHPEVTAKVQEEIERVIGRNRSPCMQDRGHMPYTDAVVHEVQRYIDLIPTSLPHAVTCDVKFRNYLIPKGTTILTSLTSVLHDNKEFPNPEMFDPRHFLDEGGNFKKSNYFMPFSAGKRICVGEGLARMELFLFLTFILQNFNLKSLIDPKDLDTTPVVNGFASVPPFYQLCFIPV

CCn1cc(CN2CCCC(C(=O)c3cccc(C(F)(F)F)c3)C2)cn1 (stereo not drawn)
EC50 [1]: 0.25 µM (active)

O=C(c1cccc(F)c1)N1CCC2(CC1)CCN(c1ccccn1)CC2
AC50 [2]: 20 µM (inconclusive)
AC50 [3]: inconclusive

COc1cc(C2c3c(oc4ccccc4c3=O)C(=O)N2c2nccs2)ccc1O (stereo not drawn)
IC50 [4]: 36 µM (active)
IC50 [5]: 12.7 µM (active)
IC50 [6]: 81.5 µM (active)

Sc1n[nH]c(-c2ccccc2Br)n1
IC50 [7]: > 100 µM (inactive)
IC50 [8]: > 100 µM (inactive)
IC50 [9]: > 59.6 µM (not active)
IC50 [10]: 19.3 µM (not active)
IC50 [11]: 4.67 µM (active)
AC50 [12]: 30.2 µM (active)
IC50 [13]: 37.6 µM (active)

c1ccc(CSCCc2ccncc2)cc1
IC50 [14]: 23.1 µM (inactive)
IC50 [15]: 23.4 µM (active)
IC50 [16]: > 100 µM (inactive)
IC50 [17]: 47.9 µM (active)

COc1cc(OC)cc(C(=O)NNC(=O)c2nn(C)c(=O)c3ccccc23)c1
EC50 [18]: > 100 µM (inactive)
EC50 [19]: 11.8 µM (active)
EC50 [20]: 11.8 µM (active)
EC50 [21]: 12.4 µM (active)

CCOC(=O)[C@H](CCc1ccccc1)N[C@@H](C)C(=O)N1[C@H](C(=O)O)C[C@H]2CCC[C@@H]21
AC50 [22]: inactive
AC50 [23]: inactive

Cc1ccc(Cl)c2c(N=Nc3ccccc3)c(O)[nH]c12
AC50 [24]: 113 µM (active)
EC50 [25]: 8.15 µM (active)
EC50 [26]: 19.1 µM (active)
EC50 [27]: 18.6 µM (active)
EC50 [28]: > 300 µM (inconclusive)
